Read-outs that look alike come from different tables or passages of the source.
Key:
[1] = system: P. falciparum male gametocytes; test: P. falciparum Dual Gamete Formation Assay (PfDGFA), male readout (exflagellation); assay type: cell-based, Plasmodium falciparum NF54; conditions: for Selectivity Ratio M: HepG2 Tox50 versus male IC50; for inhibition at 2 µM / Average inhibition male (%) / % inhibition male (individual replicates) R1 / % inhibition male (individual replicates) R3 / % inhibition male (individual replicates) R4: 24h preincubation with gametocytes; for IC50: PfDGFA, 24 h incubation with gametocytes before induction, exflagellation readout, read-out: Male IC50
In short: (§1)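 First, day-14 P. falciparum NF54 gametocytes receive compound for 24 h at 37°C in 1% O2/3% CO2. Next, ookinete medium with Cy3 anti-Pfs25 triggers gametogenesis at 28°C and male exflagellation is imaged. Finally, after 24 h in the dark, Cy3-labelled females are imaged.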

HepG2 cells = test: HepG2 cytotoxicity counter-screen; conditions: cytotoxic activity against HepG2 cells
[2] = system: P. falciparum female gametocytes; test: P. falciparum Dual Gamete Formation Assay (PfDGFA), female readout (Pfs25-positive female gametes); assay type: cell-based, Plasmodium falciparum NF54; conditions: for Selectivity ratio F: HepG2 Tox50 versus female IC50; for inhibition at 2 µM / Average inhibition female (%) / % inhibition female (individual replicates) R1 / % inhibition female (individual replicates) R3 / % inhibition female (individual replicates) R4: 24h preincubation with gametocytes; for IC50: PfDGFA, 24 h incubation with gametocytes before induction, female gamete readout, read-out: Female IC50
In short: as §1

[3] = PfDGFA at 2µM, average of replicates

Structure (SMILES)	Selectivity Ratio M [1]	Tox50 (HepG2 cells) [µM]	Selectivity ratio F [2]	Average inhibition male (%) ([1]; 2µM, average of replicates)	% inhibition male (individual replicates) R1 ([1]; 2µM, replicate R1) [%]	% inhibition male (individual replicates) R3 ([1]; 2µM, replicate R3) [%]	% inhibition male (individual replicates) R4 ([1]; 2µM, replicate R4) [%]	IC50 [1] [nM]	Average inhibition female (%) ([2]; 2µM, average of replicates)	% inhibition female (individual replicates) R1 ([2]; 2µM, replicate R1) [%]	% inhibition female (individual replicates) R3 ([2]; 2µM, replicate R3) [%]	% inhibition female (individual replicates) R4 ([2]; 2µM, replicate R4) [%]	IC50 [2] [nM]	other results
Cl.O=C1Nc2ccc3ncccc3c2/C1=C/Nc1ccc(N2CCN(CCO)CC2)cc1 [TCMDC-138634]	229.28	33.87	3.39											inhibition at 2 µM ([1]; Plasmodium falciparum, 2µM, average of replicates, read-out: Average inhibition male (%)): 92.8%; inhibition at 2 µM ([1]; Plasmodium falciparum, 2µM, replicate R1, read-out: % inhibition male (individual replicates) R1): 89.8%; inhibition at 2 µM ([1]; Plasmodium falciparum, 2µM, replicate R2, read-out: % inhibition male (individual replicates) R2): 91.5%; inhibition at 2 µM ([1]; Plasmodium falciparum, 2µM, replicate R3, read-out: % inhibition male (individual replicates) R3): 89.7%; inhibition at 2 µM ([1]; Plasmodium falciparum, 2µM, replicate R4, read-out: % inhibition male (individual replicates) R4): 100%; IC50 ([1]; Plasmodium falciparum): 150 nM; inhibition at 2 µM ([2]; Plasmodium falciparum, 2µM, average of replicates, read-out: Average inhibition female (%)): -7.8%; inhibition at 2 µM ([2]; Plasmodium falciparum, 2µM, replicate R1, read-out: % inhibition female (individual replicates) R1): -5.3%; inhibition at 2 µM ([2]; Plasmodium falciparum, 2µM, replicate R2, read-out: % inhibition female (individual replicates) R2): -7.3%; inhibition at 2 µM ([2]; Plasmodium falciparum, 2µM, replicate R3, read-out: % inhibition female (individual replicates) R3): -18.8%; inhibition at 2 µM ([2]; Plasmodium falciparum, 2µM, replicate R4, read-out: % inhibition female (individual replicates) R4): 0.25%; IC50 ([2]; Plasmodium falciparum): > 10000 nM
C=CC(C)C1OC(=O)c2cc(OC)cc(OC)c21 (stereo not shown) [TCMDC-138676]	2.76	1.57	1.37	100.2	101.1	101.1	99.6	570	94.9	92.0	102.0	91.3	1150	
C=CCC1OC(=O)c2cc(OC)cc(OC)c21 (stereo not shown) [TCMDC-138677]	2.21	2.57	1.43	100.4	99.9	100.4	100.2	1160	52.4	41.8	47.5	59.2	1800	
COc1cc2nc(N3CCC(CNC(=O)c4ccc(-c5ccc(Cl)cc5)cc4)CC3)nc(N)c2cc1OC [TCMDC-138718]	3.57	6.93	3.36					1940					2060	Average inhibition male (%) [1, 3]: 79.1%; % inhibition male (individual replicates) R1 ([1]; PfDGFA at 2µM, replicate R1): 85.4%; % inhibition male (individual replicates) R3 ([1]; PfDGFA at 2µM, replicate R3): 66.5%; % inhibition male (individual replicates) R4 ([1]; PfDGFA at 2µM, replicate R4): 84.2%; HitlevelM ([1]; number of replicates with >50% inhibition in the male readout, 2µM): 4; Average inhibition female (%) [2, 3]: 49.0%; % inhibition female (individual replicates) R1 ([2]; PfDGFA at 2µM, replicate R1): 33.3%; % inhibition female (individual replicates) R3 ([2]; PfDGFA at 2µM, replicate R3): 38.5%; % inhibition female (individual replicates) R4 ([2]; PfDGFA at 2µM, replicate R4): 37.2%; HitlevelF ([2]; number of replicates with >50% inhibition in the female readout, 2µM): 1
COc1cc2nc(N3CCC(CNC(=O)c4ccc(-c5ccc(-c6noc(C)n6)cc5)cc4)CC3)nc(N)c2cc1OC [TCMDC-138754]	6	3.68	6.02	99.2	101.8	98.0	96.9	610	48.8	31.8	47.5	53.9	610	
COc1cc2nc(N3CCC(CNCc4ccc(-c5ccc(C(F)(F)F)cc5)cc4)CC3)nc(N)c2cc1OC [TCMDC-138757]	9.29	2.05	8.75	97.9	97.9	96.8	99.6	220	59.1	32.6	30.7	89.8	230	

Source: article PMC10584170, “Machine learning-based phenotypic imaging to characterise the targetable biology of Plasmodium falciparum male gametocytes for the development of transmission-blocking antimalarials” (PLOS Pathogens, 2023)
